Laboratory results as given in BindingDB's records for doi:10.1016/s0960-894x(03)00648-6 (Ariad Pharmaceuticals, 2003).

assay: Inhibition of Src-mediated dentine resorption in rabbit-osteoclast assay

| IC50 [µM] | SMILES |
| --- | --- |
| 48.2 | O=P(O)(O)C(O)(CCCNc1nc(Nc2ccccc2)c2ncn(C3CCCC3)c2n1)P(=O)(O)O |
| 15.7 | N[C@H]1CC[C@H](Nc2nc(Nc3ccc(P(=O)(O)O)c(P(=O)(O)O)c3)c3ncn(C4CCCC4)c3n2)CC1 |
| 0.041 | N[C@H]1CC[C@H](Nc2nc(Nc3ccc(P(=O)(O)CP(=O)(O)O)cc3)c3ncn(C4CCCC4)c3n2)CC1 |

The remaining lines, values behind:

| SMILES | IC50 [µM] |
| --- | --- |
| N[C@H]1CC[C@H](Nc2nc(Nc3ccc(C(P(=O)(O)O)P(=O)(O)O)cc3)c3ncn(C4CCCC4)c3n2)CC1 | 22 |
| CN(C)CCNc1nc(Nc2ccccc2)c2ncn(C3CCCC3)c2n1 | 9.81 |
| O=P(O)(O)CP(=O)(O)CCCNc1nc(Nc2ccccc2)c2ncn(C3CCCC3)c2n1 | 5.23 |
| N[C@H]1CC[C@H](Nc2nc(Nc3ccccc3)c3ncn(C4CCCC4)c3n2)CC1 | 0.141 |
